The subject of one data set is Enterococcus faecium. Nature of the data set: Antimicrobial activity against vancomycin-resistant Enterococcus faecium ATCC 51559 after 18 hrs. The data set is classed as functional. Conditions: ATCC 51559, 18 h.
The subject of a further data set is Bacillus subtilis. The data set is described as follows: Antimicrobial activity against Bacillus subtilis KCTC 3068 after 18 hrs. The class given is functional. Conditions: KCTC 3068, 18 h.
The test system of data set [1] is Staphylococcus aureus. Nature of the data set: Antimicrobial activity against methicillin-resistant Staphylococcus aureus CCARM 3095 after 18 hrs. The data set is classed as functional. Conditions: CCARM 3095, 18 h.
Data set [2] has as its system Staphylococcus aureus. The data set is described as follows: Induction of membrane permeabilization in Staphylococcus aureus KCTC 1621 at 2 to 8 times MIC concentration up to 300 secs by SYTOX green uptake assay. The class given is functional, organism-based.
Data set [3] relates to DNA. Nature of the data set: Binding affinity to Escherichia coli pBR322 DNA assessed as inhibition of DNA migration at 32 uM after 1 hr by agarose gel electrophoresis and UV spectroscopy. The data set is classed as nucleic-acid assay.
For data set [4], the system named is Escherichia coli. The data set is described as follows: Bactericidal activity against Escherichia coli KCTC 1682 at MIC concentration after 120 to 180 mins by time kill assay. The class given is functional, organism-based.
Data set [5] concerns Staphylococcus aureus. The data set is described as follows: Induction of cytoplasmic membrane depolarization in Staphylococcus aureus KCTC 1621 at 2 to 8 times MIC concentration by DiSC3(5)-dye based fluorescence spectrophotometry. The class given is functional, organism-based.
Data set [6] in a line: Hemolytic activity in sheep RBC assessed as free hemoglobin level up to 256 uM by ELISA relative to control. Conditions: sheep red blood cells (erythrocytes), read-out: Activity. The class given is ADME, cell-based, Ovis aries, Erythrocyte. Background: An ELISA detects its analyte on a solid surface through an enzyme-linked reagent.
For data set [7], the system named is Staphylococcus aureus. Nature of the data set: Bactericidal activity against Staphylococcus aureus KCTC 1621 at MIC concentration after 30 mins by time kill assay. The data set is classed as functional, organism-based.
The test system of data set [8] is Escherichia coli. The data set is described as follows: Induction of membrane permeabilization in Escherichia coli KCTC 1682 assessed as PI-positive cells at 25 uM after 1 to 2 hrs by propidium iodide-staining based flow cytometry (reference value: 2.36%). The data set is classed as functional. (In general: Flow cytometry measures light scatter and fluorescence of single cells or particles in a stream.)

In data set [9] the test system is RAW264.7. The data set is described as follows: Cytotoxicity against mouse RAW264.7 cells at 512 uM after 48 hrs by MTT assay. Conditions: raw264.7, 48 h. The data set is classed as cell-based.
The next data set has as its system Salmonella typhimurium. The data set is described as follows: Antimicrobial activity against Salmonella typhimurium KCTC 1926 after 18 hrs. Conditions: Salmonella enterica, KCTC 1926, 18 h. The class given is functional, Salmonella enterica subsp. enterica serovar Typhimurium.
The subject of data set [10] is Pseudomonas aeruginosa. Nature of the data set: Antimicrobial activity against Pseudomonas aeruginosa KCTC 1637 after 18 hrs. Conditions: KCTC 1637, 18 h. The data set is classed as functional.
For data set [11], the system named is Staphylococcus aureus. Nature of the data set: Antimicrobial activity against methicillin-resistant Staphylococcus aureus CCARM 3089 after 18 hrs. The class given is functional. Conditions: CCARM 3089, 18 h.
The subject of data set [12] is Staphylococcus aureus. The data set is described as follows: Antimicrobial activity against methicillin-resistant Staphylococcus aureus CCARM 3090 after 18 hrs. The class given is functional. Conditions: CCARM 3090, 18 h.
Data set [13] relates to Pseudomonas aeruginosa. Nature of the data set: Antimicrobial activity against multidrug-resistant Pseudomonas aeruginosa CCARM 2095 after 18 hrs. Conditions: CCARM 2095, 18 h. The class given is functional.
The test system of data set [14] is Staphylococcus epidermidis. The data set is described as follows: Antimicrobial activity against Staphylococcus epidermidis KCTC 1617 after 18 hrs. The class given is functional. Conditions: KCTC 1617, 18 h.
Data set [15] has as its system Escherichia coli. The data set is described as follows: Antimicrobial activity against Escherichia coli KCTC 1682 after 18 hrs. The class given is functional. Conditions: KCTC 1682, 18 h.
The subject of data set [16] is Staphylococcus aureus. Nature of the data set: Antimicrobial activity against Staphylococcus aureus KCTC 1621 after 18 hrs. Conditions: KCTC 1621, 18 h. The data set is classed as functional.
Data set [17] has as its system DNA. The data set is described as follows: Binding affinity to Escherichia coli pBR322 DNA assessed as inhibition of DNA migration at 16 uM after 1 hr by agarose gel electrophoresis and UV spectroscopy. The class given is nucleic-acid assay.
Data set [18] has as its system Escherichia coli. The data set is described as follows: Induction of membrane permeabilization in Escherichia coli KCTC 1682 assessed as PI-positive cells at 12.5 uM after 1 to 2 hrs by propidium iodide-staining based flow cytometry (reference value: 2.36%). The data set is classed as functional.
Data set [19] in a line: Hemolytic activity in sheep RBC assessed as free hemoglobin level at 16 uM by ELISA relative to control. The class given is ADME, cell-based, Ovis aries, Erythrocyte. Conditions: sheep red blood cells (erythrocytes), read-out: Activity.
The test system of data set [20] is Staphylococcus aureus. The data set is described as follows: Induction of membrane permeabilization in Staphylococcus aureus KCTC 1621 at 2 times MIC concentration up to 300 secs by SYTOX green uptake assay. The class given is functional, organism-based.
Data set [21] deals with Escherichia coli. The data set is described as follows: Induction of membrane permeabilization in Escherichia coli KCTC 1682 assessed as PI-positive cells at 4 uM after 1 to 2 hrs by propidium iodide-staining based flow cytometry (reference value: 2.36%). The class given is functional.
Data set [22] deals with Staphylococcus aureus. Nature of the data set: Induction of cytoplasmic membrane depolarization in Staphylococcus aureus KCTC 1621 at 2 times MIC concentration by DiSC3(5)-dye based fluorescence spectrophotometry. The class given is functional, organism-based.
For data set [23], the system named is RAW264.7. Nature of the data set: Cytotoxicity against mouse RAW264.7 cells at 32 uM after 48 hrs by MTT assay relative to control. The class given is cell-based. Conditions: raw264.7, 48 h. In general terms: Tetrazolium dyes change colour on reduction, which living cells bring about.

The MIC is the lowest concentration that inhibits growth of the organism.

The structures appear in SMILES notation. In brackets after ≈: the same amount, converted by molar mass. Activity calls are given as the source filed them. The calls are words filed in the database; no cut-off is given here. Positions of bridges follow the written chain, without caps; N, C: chain ends. Residues, ends and D or L forms follow the SMILES beside them. Bounds are passed on as bounds.

Take `CC[C@H](C)[C@@H]1NC(=O)[C@H]([C@@H](C)O)NC(=O)[C@H](Cc2cnc[nH]2)NC(=O)[C@H](CCCNC(=N)N)NC(=O)[C@H](C)NC(=O)[C@H](CCCNC(=N)N)NC(=O)[C@H](CC(C)C)NC(=O)[C@H](CO)NC(=O)[C@H](C)NC(=O)[C@@H](NC(=O)[C@H](CC(C)C)NC(=O)[C@@H](N)CC(N)=O)CSSC[C@@H](C(=O)N[C@@H](CCCNC(=N)N)C(=O)N[C@@H](CCCCN)C(=O)N[C@@H](Cc2ccccc2)C(=O)NCC(=O)N[C@@H](CCCNC(=N)N)C(=O)N[C@@H](CCCNC(=N)N)C(N)=O)NC(=O)[C@H](CCC(N)=O)NC(=O)[C@@H]2CCCN2C1=O` (H-NLCASLRARHTIPQCRKFGRR-NH2; disulfide 3-15): the MIC in the data set with Enterococcus faecium is 25 µM (≈ 62 µg/mL); with Bacillus subtilis, 12.5 µM (≈ 31 µg/mL); against Staphylococcus aureus [1] it was 12.5 µM (≈ 31 µg/mL); with Salmonella typhimurium, 12.5 µM (≈ 31 µg/mL); in the data set with Pseudomonas aeruginosa [10] it was 12.5 µM (≈ 31 µg/mL); against Staphylococcus aureus [11], 12.5 µM (≈ 31 µg/mL). The minimum inhibitory concentration (MIC) against Staphylococcus aureus [12] turned out to be 25 µM (≈ 62 µg/mL); against Pseudomonas aeruginosa [13], 50 µM (≈ 124 µg/mL); in data set [14] it was 12.5 µM (≈ 31 µg/mL); in the data set with Escherichia coli [15], 12.5 µM (≈ 31 µg/mL); in the data set with Staphylococcus aureus [16] it was 12.5 µM (≈ 31 µg/mL). Further, the outcome in the data set with Staphylococcus aureus [2] and with Staphylococcus aureus [5] was inactive. Further, the outcome with DNA [3], with Escherichia coli [4] and in the data set with Staphylococcus aureus [7] was Active. Moreover, in [6], the hemolysis is below 1%. Further, the Activity in the data set with Escherichia coli [8] is given as 6.39%; in the data set on RAW264.7 [9], “Non-Toxic”.
In the case of `CC[C@H](C)[C@H](NC(=O)[C@@H](NC(=O)[C@H](Cc1cnc[nH]1)NC(=O)[C@H](CCCNC(=N)N)NC(=O)[C@H](C)NC(=O)[C@H](CCCNC(=N)N)NC(=O)[C@H](CC(C)C)NC(=O)[C@H](CO)NC(=O)[C@H](C)NC(=O)[C@H](CO)NC(=O)[C@H](CC(C)C)NC(=O)[C@@H](N)CC(N)=O)[C@@H](C)O)C(=O)N1CCC[C@H]1C(=O)N[C@@H](CCC(N)=O)C(=O)N[C@@H](CO)C(=O)N[C@@H](CCCNC(=N)N)C(=O)N[C@@H](CCCCN)C(=O)N[C@@H](Cc1ccccc1)C(=O)NCC(=O)N[C@@H](CCCNC(=N)N)C(=O)N[C@@H](CCCNC(=N)N)C(N)=O` (H-NLSASLRARHTIPQSRKFGRR-NH2), the MIC with Enterococcus faecium turned out to be 50 µM (≈ 123 µg/mL); in the data set with Bacillus subtilis it was 12.5 µM (≈ 30.6 µg/mL); against Staphylococcus aureus [1], 25 µM (≈ 61.3 µg/mL); against Salmonella typhimurium it was 6.3 µM (≈ 15.4 µg/mL); against Pseudomonas aeruginosa [10] it was 6.3 µM (≈ 15.4 µg/mL); with Staphylococcus aureus [11], 25 µM (≈ 61.3 µg/mL). The MIC with Staphylococcus aureus [12] was determined as 50 µM (≈ 123 µg/mL); in the data set with Pseudomonas aeruginosa [13], 12.5 µM (≈ 30.6 µg/mL); in data set [14] it was 6.3 µM (≈ 15.4 µg/mL); in the data set with Escherichia coli [15] it was 6.3 µM (≈ 15.4 µg/mL); in the data set with Staphylococcus aureus [16], 12.5 µM (≈ 30.6 µg/mL). The result in the data set with Staphylococcus aureus [2] and in the data set with Staphylococcus aureus [5] was inactive. Further, the result with Escherichia coli [4], in the data set on DNA [17] and in the data set with Staphylococcus aureus [7] was Active. The hemolysis in [6] was below 1%. Besides, the Activity result in the data set on RAW264.7 [9] is on record as “Non-Toxic”; with Escherichia coli [18], 3.66%.
Consider `CC[C@H](C)[C@H](NC(=O)CN)C(=O)NCC(=O)N[C@@H](C)C(=O)N[C@H](C(=O)N[C@@H](CC(C)C)C(=O)N[C@@H](CCCCN)C(=O)N[C@H](C(=O)N[C@@H](CC(C)C)C(=O)N[C@H](C(=O)N[C@H](C(=O)NCC(=O)N[C@@H](CC(C)C)C(=O)N1CCC[C@H]1C(=O)N[C@@H](C)C(=O)N[C@@H](CC(C)C)C(=O)N[C@H](C(=O)N[C@@H](CO)C(=O)N[C@@H](Cc1c[nH]c2ccccc12)C(=O)N[C@H](C(=O)N[C@@H](CCCCN)C(=O)N[C@@H](CCCNC(=N)N)C(=O)N[C@@H](CCCCN)C(=O)N[C@@H](CCCNC(=N)N)C(=O)N[C@@H](CCC(N)=O)C(=O)N[C@@H](CCC(N)=O)C(N)=O)[C@@H](C)CC)[C@@H](C)CC)[C@@H](C)O)[C@@H](C)O)C(C)C)C(C)C` [MELITTIN], for which, in data set [19], the hemolysis at 16 µM stood at 63%. For the same compound, the outcome with Staphylococcus aureus [20] and with Staphylococcus aureus [22] was Active. Also, the Activity in the data set with Escherichia coli [21] is listed as 55.5%; in the data set on RAW264.7 [23], 100%. Besides, the result in the data set on Staphylococcus aureus [2] was inactive.

The values are drawn from ChEMBL document CHEMBL4257591 (J Med Chem, 2018).
